Measurements taken from US12268739B2, “Use of toll-like receptor 2 (TLR-2) agonist for modulating human immune response” (Children's Medical Center Corporation, priority 2018, dated 2025).
Entries after “also recorded” stand apart in the source; their conditions may differ.

Assays:
human TLR2 [1] = target: T1, human TLR2 (Homo sapiens, UniProt O60603); experiment: HEK-Blue human TLR cell screening (NF-κB SEAP reporter); assay type: cell-based; settings: compounds at 10 μM, fold change over negative controls; listed as 080
T1 construct: expressed in transfected cells; host or cells: HEK-Blue (human embryonic kidney) cells with an NF-kB-inducible SEAP reporter
T1 sequence (O60603 21-784): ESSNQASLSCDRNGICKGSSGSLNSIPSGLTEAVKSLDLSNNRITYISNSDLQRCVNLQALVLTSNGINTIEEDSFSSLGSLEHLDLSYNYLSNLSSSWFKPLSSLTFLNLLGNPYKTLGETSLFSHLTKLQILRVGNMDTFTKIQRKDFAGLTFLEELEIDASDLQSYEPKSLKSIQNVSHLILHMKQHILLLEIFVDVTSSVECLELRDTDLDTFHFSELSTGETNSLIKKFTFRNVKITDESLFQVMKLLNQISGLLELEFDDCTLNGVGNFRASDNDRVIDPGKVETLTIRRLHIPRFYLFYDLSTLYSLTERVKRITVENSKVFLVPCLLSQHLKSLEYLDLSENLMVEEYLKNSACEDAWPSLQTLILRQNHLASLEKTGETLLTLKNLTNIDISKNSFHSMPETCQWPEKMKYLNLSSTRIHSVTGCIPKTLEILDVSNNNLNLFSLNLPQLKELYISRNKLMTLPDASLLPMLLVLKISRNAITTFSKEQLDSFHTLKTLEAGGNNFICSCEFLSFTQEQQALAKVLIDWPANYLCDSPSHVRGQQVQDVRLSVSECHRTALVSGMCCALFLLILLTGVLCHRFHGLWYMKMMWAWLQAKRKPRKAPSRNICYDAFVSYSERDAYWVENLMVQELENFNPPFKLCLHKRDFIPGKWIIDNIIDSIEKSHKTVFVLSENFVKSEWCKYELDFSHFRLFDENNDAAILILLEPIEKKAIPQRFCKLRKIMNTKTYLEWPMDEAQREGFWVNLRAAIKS
Protocol: HEK cell screening. Human embryonic kidney (HEK)-Blue cell lines expressing human TLRs (hTLRs) and a secreted embryonic alkaline phosphatase (SEAP) reporter under the control of an NF-κB-inducible promoter were cultured in 96-well plates (50,000-75,000 cells/200 μl/well) and stimulated with the indicated compounds at 10 µM or positive controls. The media added to the wells is designed for detection of NF-κB-induced SEAP expression. After 16-24 hours of incubation optical density (OD) was read at 650 nm on a Molecular Devices SpectraMax 340PC absorbance detector. Positive controls employed in this assay were: heat-killed Listeria monocytogenes (1×10^8 cells/ml) for hTLR2, Poly (I:C) HMW (1 μg/ml) for hTLR3, ? E. coli K12 LPS (100 ng/ml) for hTLR4, S. typhimurium flagellin (100 ng/ml) for hTLR5, CL307 (1 μg/ml) for hTLR7, CL075 (1 μg/ml) for hTLR8 and CpG ODN 2006 (1 μg/ml) for hTLR9.

human TLR2 [2] = target: T1, human TLR2; experiment: HEK293 assay for human TLR2 selectivity (NF-κB/SEAP); assay type: cell-based; settings: 18-24 hours stimulation, titratable
Protocol: HEK293 assay for human TLR2 and TLR8 selectivity: Human embryonic kidney (HEK) 293 cells expressing human TLR2 or TLR8 with an NF-κB-responsive secreted embryonic alkaline phosphatase (SEAP) reporter gene were obtained from Invivogen (San Diego, CA). Cells were maintained in RPMI or DMEM with 10% heat inactivated-FBS and selection antibiotics per the manufacturer's instructions. Cells were plated at 5×10^5 cells/96-well and stimulated with indicated agonist(s) for 24 hours. Supernatants were harvested and analyzed for NF-κB/SEAP activation using the QuantiBlue kit (Invivogen). Values are expressed as fold change in OD650 over vehicle-only treated samples.

[3] = tested on: NF-κB reporter THP1 cells; experiment: NF-kB-induced luminescence HTS in THP1-Lucia cells (384-well); assay type: cell-based, human; settings: ranked at 3.3 μM; ~200,000 compounds tested; listed as 080
Description: HTS Overview: To identify immunomodulators/adjuvants that robustly activate human immune cells, ˜200,000 small molecules were screening in a THP1 cell-based assay. The chemical libraries screened included known bioactive and commercial libraries from various sources including commercial libraries such as ChemDiv, ChemBridge, and Asinex. All libraries were owned and provided by the Institute of Chemistry and Cell Biology (ICCB)—Longwood (Harvard Medical School). The project primary screen incorporated two distinct arms: a) a luciferase-based screen which corresponds to the relative activation of the NF-κB reporter; and b) a fluorescence-based screen, corresponding to the phenotypic adherence, a distinct marker of cell activation, of the human monocytic THP-1 cell lines. Described herein are small molecules identified in the screen that induce NF-kB activity based on a luciferase-based THP-1 cell screen.
(§1) THP-1 Cell Line and Culture Conditions. The THP1-Lucia™ cell line was obtained from Invivogen (San Diego, CA). THP1-Lucia cells, which are human monocytic cells derived from the blood of a child with leukemia, contain an NF-kB-inducible Luc reporter construct. This allows NF-kB activation to be measured by quantifying the luminescence from the secreted luciferase enzyme. THP1-Lucia cells were cultured in RPMI 1640 supplemented with 10% non-heat inactivated fetal bovine serum (FBS), 10 mM HEPES, 1.0 mM sodium pyruvate, 50 ug/ml Pen-Strep, and 100 ug/mL Normocin™. Once cultured, the cells were stored in a 37° C. incubator with 5% CO2 and a humidified atmosphere. Cells were passaged every 2-3 days and not allowed to exceed a concentration of 2.0×10^6 cells/ml media.
NF-kB-induced Luminescence Assay. THP1-Lucia cells between passage 15 and 18 and suspended in culture medium were dispensed into 384-well black clear-bottom plates (Corning 3712) at 30,000 cells/30 μl/well using a Combi liquid dispenser. To allow comparison to a benchmark small molecule with known immune stimulating activity, cells at the same concentration were stimulated with 50 μM R848, a TLR7/8 agonist, in 0.3% DMSO and added to every other well of column 24, which was left empty of cells, by multichannel pipette at the same volume. Five μl of 700 nM Phorbol myristate acetate (PMA) in THP1 culture media and 2.3% DMSO, a known peripheral blood cell mitogen, was added to every other well of column 23 by multichannel pipette (final concentration in well: 100 nM in 0.3% DMSO). Five μl of THP1 culture media with 2.3% DMSO was added to the remaining wells of column 23 by multichannel pipette (final concentration 0.3% DMSO). One hundred nl aliquots of library compounds diluted in 100% DMSO were transferred from their original 384-well plates to the assay plates using a Seiko pin transfer machine. Each library plate was pinned in duplicate, yielding two assay plates with identical conditions for comparison. Plates were then incubated for 24 hours at 37 C with 5% CO2 in humid conditions. Following incubation, 10 μL of supernatant was removed from each well and transferred to a white plate (Corning 3570) using a Vprep liquid transfer machine. 10 μL of recombinant Lucia protein (Invivogen) diluted 1:2000 in THP1 culture media was added to empty well 24P. Using a Combi liquid dispenser, 50 μL/well of Quanti-Luc substrate (Invivogen) diluted 1:3 in sterile water was added to the assay plate. Immediately after adding the substrate, the luminescence was read using a PerkinElmer Envision plate reader.

THP1-NF-κB cells = experiment: THP1-NF-κB cell stimulation for 24 hours, secreted luciferase luminescence; assay type: cell-based, human
Protocol: as §1
PBMCs were isolated from blood using a Ficoll density gradient. PBMCs either used fresh or were stored at 5×10^7 cells per vial in 1 mL RPMI containing 20% autologous plasma and 10% DMSO at −80° C. until use. Stimulation plates were prepared by transferring 0.66 μl of DMSO-dissolved compounds (30 or 7.5 mM) to each well of a round bottom 96-well plate. PBMCs isolated from human adult donors or THP1-NF-κB cells were resuspended at a concentration of 10^5 cells/200 μl of RPMI supplemented with 10% of platelet-poor plasma or THP1 culture medium, respectively. 200 μl of the cell suspension were transferred to each well resulting in a final compound concentration of 100 or 25 μM. After 24 hours of incubation (37° C., 5% CO2), plates were spun down (500×g, room temperature, 5 minutes) and supernatants were harvested for further analysis.

SMILES: CNC(=O)c1c(NC(=O)c2ccc(S(=O)(=O)N(C)C)cc2)sc2c1CCC2 [Compound 80]
- Activation of human TLR2 (NF-κB activation in TLR-expressing HEK-Blue cells) (human TLR2 [1]): activate human TLR2; also recorded: activated the human TLR2-expressing human embryonic kidney (HEK)-Blue cell line
- TLR2 activation in HEK TLR2 cells (SEAP) (human TLR2 [2]): induced TLR2 specific activation
- Efficacy in activating NF-κB in THP1 cells (screening hits) [3]: most effective NF-κB activators; also recorded: most effective NF-kB activators
- Activation of THP1 cells (THP1-NF-κB cells; 384 and 96 well assay): induced activation of THP1 cells
- THP1 cells (relative luminescence units, N = 4) Comp at 25 uM (THP1-NF-κB cells; NF-κB-dependent luminescence, compound at 25 uM, 24 hours): 8280 relative luminescence units
- THP1 cells (relative luminescence units, N = 4) Comp at 100 uM (THP1-NF-κB cells; NF-κB-dependent luminescence, compound at 100 uM, 24 hours): 12174 relative luminescence units
